Source: patent publication US8637237B2, “Methods, compositions, and systems for the identification of species-specific or developmental stage-specific insecticides” (The University of North Carolina at Greensboro, priority 2003, dated 2014)
Like-named read-outs stand apart in the source and are kept apart here. Each block holds one compound with its values, some of them ahead of it.

Legend:
FXR = biological target: T1, FXR (Rattus norvegicus, UniProt Q62735); experiment: cell-based
T1 sequence (Q62735 1-469): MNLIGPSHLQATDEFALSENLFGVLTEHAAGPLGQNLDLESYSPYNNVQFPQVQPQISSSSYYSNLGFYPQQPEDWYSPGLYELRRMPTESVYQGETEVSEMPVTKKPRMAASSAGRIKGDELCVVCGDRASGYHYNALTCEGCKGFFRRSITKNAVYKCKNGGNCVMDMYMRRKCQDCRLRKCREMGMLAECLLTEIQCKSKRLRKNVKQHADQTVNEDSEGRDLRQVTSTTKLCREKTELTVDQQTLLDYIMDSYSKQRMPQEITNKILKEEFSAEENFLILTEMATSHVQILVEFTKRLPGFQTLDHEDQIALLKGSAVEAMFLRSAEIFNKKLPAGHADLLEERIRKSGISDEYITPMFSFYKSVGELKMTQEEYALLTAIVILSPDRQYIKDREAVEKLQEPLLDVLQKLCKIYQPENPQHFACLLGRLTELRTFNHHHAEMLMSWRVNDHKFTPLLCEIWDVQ
T1 sequence (P28700 1-467 partner): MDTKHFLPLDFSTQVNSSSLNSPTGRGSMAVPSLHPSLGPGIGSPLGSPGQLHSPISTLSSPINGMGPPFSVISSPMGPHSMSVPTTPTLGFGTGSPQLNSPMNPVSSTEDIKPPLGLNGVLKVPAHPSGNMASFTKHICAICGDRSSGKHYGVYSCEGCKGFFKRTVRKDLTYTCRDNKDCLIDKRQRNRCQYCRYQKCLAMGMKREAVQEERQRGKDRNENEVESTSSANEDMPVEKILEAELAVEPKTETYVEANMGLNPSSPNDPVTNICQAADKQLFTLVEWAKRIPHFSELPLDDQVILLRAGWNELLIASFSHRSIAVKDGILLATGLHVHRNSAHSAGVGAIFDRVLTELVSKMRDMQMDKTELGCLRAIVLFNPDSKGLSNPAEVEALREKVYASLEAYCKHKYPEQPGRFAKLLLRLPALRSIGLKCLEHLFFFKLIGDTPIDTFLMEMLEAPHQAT
Procedure, shortened: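 CHO cells co-transfected with FXR, mouse RXRα and a (EcRE)5-ΔMTV-CAT reporter, with β-galactosidase for normalization. An RXR-dependent CRBPII-CAT reporter was run in parallel. Cells were exposed to candidate juvenoids for 24 h; CAT activity normalized to β-gal and expressed as fold induction over vehicle controls.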

[1] = via 20,22-dihydroxycholesterol intermediate; read-out: apparent Km of metabolism to pregnenolone; cited from earlier work
[2] = test system: Leptinotarsa decemlineata EcR; experiment: Leptinotarsa decemlineata EcR/USP, response to agonists (FIG. 7, 8); type: cell-based; conditions: FIG. 8
Description: Unless noted otherwise, 100 ng of each EcR and USP plasmid was transfected into 2 ml of cell culture medium. As noted above, a reporter gene carrying five tandem copies of the hsp27 ecdysone response element (Riddihough and Pelham, 1986) is attached to a constitutive thymidine kinase promoter and a luciferase reporter gene (pEcREtk-LUC) and cotransfected into the cells along with vectors expressing EcR, USP, and a constitutively active β-galactosidase gene with lipofection, following manufacturer's protocols. The subsequent measure of luciferase activity reflects ecdysteroid-inducible transcription.
After a 4 hour transfection period, the hormone treatment was applied by diluting stock solutions of muristerone A (murA; Alexis Corporation, San Diego, Calif.), JHI (Scitech), JHIII (Sigma, St Louis, Mo.), and/or 20E (Sigma, St Louis, Mo.) in DMSO. The cells were harvested 24 hours after treatment and the contents of the cells extracted for performing the luciferase and β-galactosidase assays.
Leptinotarsa decemlineata (Ld) USP constructs were made by sub-cloning two different LdUSP inserts into the pVP16 vector (Clontech). This vector encodes a fusion protein of the herpes simplex virus […] viral protein (VP16) activation domain (AD) fused to LdUSP. The LdUSP portion of the fusion gene was isolated by PCR in two different lengths from a plasmid, pBSKS(+)-LdUSP. […]

GGEc = biological target: T2, GGEc (Drosophila melanogaster, UniProt P34021); experiment: GGEc chimera (GR amino terminus and DBD, EcR LBD) with RXR in CHO cells; type: cell-based
T2 construct: were replaced by EcR LBD amino acids (EcR amino acids 329 to 878); expressed in transfected cells; host or cells: CHO
T2 sequence (P34021 329-878): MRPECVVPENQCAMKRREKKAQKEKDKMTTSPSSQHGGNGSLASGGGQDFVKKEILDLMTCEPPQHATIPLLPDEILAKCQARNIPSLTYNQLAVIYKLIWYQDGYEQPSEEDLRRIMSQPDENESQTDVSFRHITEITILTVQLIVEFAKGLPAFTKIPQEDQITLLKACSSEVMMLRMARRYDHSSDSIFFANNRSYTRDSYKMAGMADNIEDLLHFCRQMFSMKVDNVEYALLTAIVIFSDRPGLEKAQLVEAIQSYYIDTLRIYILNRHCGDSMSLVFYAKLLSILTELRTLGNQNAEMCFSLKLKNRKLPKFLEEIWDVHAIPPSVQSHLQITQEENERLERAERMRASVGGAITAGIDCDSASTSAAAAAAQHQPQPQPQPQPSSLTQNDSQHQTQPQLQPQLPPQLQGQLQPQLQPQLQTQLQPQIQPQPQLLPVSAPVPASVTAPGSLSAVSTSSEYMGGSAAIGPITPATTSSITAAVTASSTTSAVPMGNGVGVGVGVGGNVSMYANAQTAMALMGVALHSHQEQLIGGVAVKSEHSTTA
Source text: For these experiments, the luciferase reporter construct was used. To obviate influences from other transcription factors, results were normalized using a reporter plasmid from which CAT expression is driven by a minimal promoter consisting of dimerized GREs linked upstream of a 13 base pair TATA box DNA element derived from the adenovirus E1B gene.
In this experiment, GGEc and RXR were transfected into CHO cells with either a CAT or a luciferase reporter plasmid containing 1.5 kilobase pairs of the glucocorticoid-inducible mouse mammary tumor virus (MTV) promoter.
In these experiments, CHO cells were transfected with a GGEc-expressing plasmid, a mouse RXRα expression plasmid, and an adenovirus E1b TATA-(GRE)2-CAT reporter plasmid. The GGEc plasmid was eliminated from DNA mixtures added to cells transfected in parallel. CAT activities were measured from lysates of cells from triplicate wells treated with ethanol vehicle, juvocimene (20 μM), muristerone A (0.2 μM), or both.
In these experiments, CHO cells were transfected with DNAs as described above but ubiquinone-2 (10 μM) was substituted for juvocimene.

GGF = biological target: T3, GGF (Rattus norvegicus, UniProt Q62735); experiment: GGF chimera (GR amino terminus and DBD, FXR LBD) in CHO cells; type: cell-based; conditions: data not shown
T3 construct: the GR amino terminus and DBD (appending 23 amino acids downstream from the conserved gly-met) were fused to the FXR LBD; expressed in transfected cells; host or cells: CHO
Source text: A plasmid was constructed that expresses a hybrid protein (GGF) consisting of the human GR amino terminus and DBD linked to the carboxyl terminus of FXR.
In these experiments, CHO cells were transfected with receptor plasmids expressing GGF and mouse RXRα and a luciferase reporter plasmid containing the upstream 1.5 kbp of the MTV promoter.

insect = conditions: from Schneiderman and Gilbert, Science 143; cited from earlier work
PPAR = experiment: PPAR-based transcriptional assay; type: cell-based; conditions: data not shown
GR = GR (Homo sapiens, UniProt P04150); experiment: GR-based transcriptional assay; type: cell-based; conditions: data not shown
RAR = experiment: RAR-based transcriptional assay; type: cell-based; conditions: data not shown
RXR = RXR (Mus musculus, UniProt P28700); experiment: RXR-based transcriptional assay; type: cell-based; conditions: data not shown
tobacco hornworm larvae = conditions: cited from earlier work

GR, sequence (P04150 whole entry): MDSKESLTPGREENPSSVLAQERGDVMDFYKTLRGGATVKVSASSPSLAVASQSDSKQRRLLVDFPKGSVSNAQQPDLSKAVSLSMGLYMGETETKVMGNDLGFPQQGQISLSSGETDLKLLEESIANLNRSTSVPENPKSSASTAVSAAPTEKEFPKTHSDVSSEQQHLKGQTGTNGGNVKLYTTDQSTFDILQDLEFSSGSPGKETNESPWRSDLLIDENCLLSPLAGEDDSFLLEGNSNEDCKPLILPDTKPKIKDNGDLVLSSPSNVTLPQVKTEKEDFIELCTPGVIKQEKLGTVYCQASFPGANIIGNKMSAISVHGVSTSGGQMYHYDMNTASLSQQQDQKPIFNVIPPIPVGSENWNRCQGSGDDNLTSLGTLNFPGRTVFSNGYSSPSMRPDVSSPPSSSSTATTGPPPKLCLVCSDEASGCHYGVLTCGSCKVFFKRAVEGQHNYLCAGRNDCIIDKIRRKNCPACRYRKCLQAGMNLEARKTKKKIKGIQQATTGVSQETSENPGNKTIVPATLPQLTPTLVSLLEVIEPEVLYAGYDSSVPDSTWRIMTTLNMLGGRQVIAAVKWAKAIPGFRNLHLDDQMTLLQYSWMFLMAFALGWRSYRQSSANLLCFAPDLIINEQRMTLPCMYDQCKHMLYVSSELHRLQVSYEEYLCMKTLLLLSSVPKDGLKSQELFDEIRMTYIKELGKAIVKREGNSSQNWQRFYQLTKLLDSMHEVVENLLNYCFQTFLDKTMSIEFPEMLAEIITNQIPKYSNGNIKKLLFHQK

SMILES: CC(C)CC[C@@H](O)[C@@H](C)[C@H]1CC[C@H]2[C@@H]3CC=C4C[C@@H](O)CC[C@]4(C)[C@H]3CC[C@]12C [22R-hydroxycholesterol, 22R-Hydroxycholesterol]
FXR-dependent transcription, induction (FXR; 7.5 μM): 10 fold
Km [1]: 7 µM

SMILES: COc1cccc(C(=O)NN(C(=O)c2cc(C)cc(C)c2)C(C)(C)C)c1C [RH2485]
stimulation of Leptinotarsa EcR, agonists compared [2]: much greater stimulation by RH2485, than by murA or 20E

SMILES: COC1=C(OC)C(=O)C(C/C=C(\C)CCC=C(C)C)=C(C)C1=O [U2, ubiquinone-2]
GGEc-dependent activity increase over MUR (GGEc; 10 μM ubiquinone-2, muristerone A): 7 times
FXR-dependent activity, induction (FXR; dose not stated): 7 fold

inhibition of CDCA-induced GGF-dependent activity (GGF): 54%
FXR-dependent activity, induction (FXR; 1 mM): ineffectiveness
inhibition at 100 µM (FXR; CHO, read-out: inhibition of FXR activity induced by farnesol): 44%
SMILES: O=c1ccc2cc(O)c(O)cc2o1 [esculetin]

GGEc transcription with compound plus MUR relative to MUR alone (GGEc; 50 μM compound, 0.2 μM MUR): between two and four times more
EC50 (FXR): 15 µM
FXR-dependent CAT activity, induction (FXR; 50 μM): 9 fold
SMILES: C=CC(C)(O)CCC=C(C)CCC=C(C)C (centres unmarked) [nerolidol]
FXR ACTIVITY (fold-induction) (FXR; final dose of 50 ∝M, 1 = induction less than 2-fold below cytotoxic doses): 9 fold-induction
JH ACTIVITY (units/g) (insect): 8.9 units/g

SMILES: COc1ccc2c(c1)OC(C)(C)C=C2 [precocene I]
activity in PPAR-based transcriptional assay (PPAR): inactive
activity in GR-based transcriptional assay (GR): inactive
activity in RAR-based transcriptional assay (RAR): inactive
reduction of FXR activity of mouse liver microsome extract by ethyl acetate-soluble products (FXR; 100 μM TLC-purified precocene I incubated with CD-1 mouse liver microsomes, NADPH, 37° C., one hour): 70%
FXR-dependent activity, induction (FXR; dose not stated): 15 fold
FXR activity of TLC-separated material from precocene I (FXR; eluted from silica, hexane-ethyl acetate (9:1)): did not affect FXR
EC50 (FXR; read-out: EC50 for FXR-dependent CAT activity): 150 µM
activity in RXR-based transcriptional assay (RXR): inactive

FXR-dependent activity, induction (FXR; 3 mM): 12 fold
FXR ACTIVITY (fold-induction) (FXR; dose 3000 μM): 12 fold-induction
FXR-dependent activity, induction (FXR; theophylline (3 mM) mixed with 8-Br-cAMP (1 mM)): more than 100 fold
SMILES: Cn1c(=O)c2[nH]cnc2n(C)c1=O [theophylline]
concentration in tobacco hornworm larvae (tobacco hornworm larvae; three days after eating tomato leaves sprayed with 1% theophylline): 4000 µM
reduction of leaf consumption (tobacco hornworm larvae; tomato leaves sprayed with 1% theophylline): by half
